The source of these data is ChEMBL document CHEMBL5584327, “Phenylstyrylpyrimidine derivatives as potential multipotent therapeutics for Alzheimer's disease” (RSC Med Chem, 2024).

The experiment deals with T1, Amine oxidase [flavin-containing] B (Homo sapiens, UniProt P27338).
T1 sequence (P27338 whole entry): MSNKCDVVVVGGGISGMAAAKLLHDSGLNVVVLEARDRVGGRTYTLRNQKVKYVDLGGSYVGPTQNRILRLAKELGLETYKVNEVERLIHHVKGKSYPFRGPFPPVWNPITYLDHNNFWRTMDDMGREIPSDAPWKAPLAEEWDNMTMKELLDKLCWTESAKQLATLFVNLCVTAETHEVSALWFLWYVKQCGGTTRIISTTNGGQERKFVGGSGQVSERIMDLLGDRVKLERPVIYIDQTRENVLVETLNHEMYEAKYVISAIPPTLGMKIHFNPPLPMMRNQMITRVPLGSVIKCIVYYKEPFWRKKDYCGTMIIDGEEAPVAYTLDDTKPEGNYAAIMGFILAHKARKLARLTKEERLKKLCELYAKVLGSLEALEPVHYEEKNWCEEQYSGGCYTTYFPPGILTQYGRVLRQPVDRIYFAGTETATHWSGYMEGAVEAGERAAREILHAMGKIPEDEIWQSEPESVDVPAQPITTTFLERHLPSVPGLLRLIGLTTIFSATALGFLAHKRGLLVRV
The experiment in a line: Inhibition of human MAO-B using p-tyramine as substrate preincubated for 15 mins followed by substrate addition and measured after 30 mins by Amplex Red reagent based fluorescence analysis.

Regarding `C#CCOc1ccccc1-c1cc(-c2ccc(Cl)cc2)nc(-c2ccccc2)n1`, inhibition was half-maximal at 0.48 µM (IC50). In other words, the sub-micromolar range.
